From PMC9578392, “Safety, Tolerability, and Pharmacokinetics of the Novel Antiviral Agent Ensitrelvir Fumaric Acid, a SARS-CoV-2 3CL Protease Inhibitor, in Healthy Adults” (Antimicrobial Agents and Chemotherapy, 2022)

What was measured:
SARS-CoV-2 = system: SARS-CoV-2; parameters: method as in PMID 35352927; details: BALB/cAJcl mice; cited from earlier work
[1] = Treatment-emergent adverse events, multiple dose (part 2); format: in vivo, human; details: for Abdominal pain, Events / Abdominal pain, n (%) / Blood creatine phosphate increased, Events / Blood creatine phosphate increased, n (%) / Blood triglyceride increased, Events / Blood triglyceride increased, n (%) / C-reactive protein increased, Events / C-reactive protein increased, n (%) / Diarrhea, Events / Diarrhea, n (%) / Dizziness, Events / Dizziness, n (%) / Feeling hot, Events / Feeling hot, n (%) / Gastrointestinal disorders, Events / Gastrointestinal disorders, n (%) / General disorders and administration site conditions, Events / General disorders and administration site conditions, n (%) / Headache, Events / Headache, n (%) / High-density lipoprotein cholesterol decreased, Events / High-density lipoprotein cholesterol decreased, n (%) / Investigations, Events / Investigations, n (%) / Nausea, Events / Nausea, n (%) / Nervous system disorders, Events / Nervous system disorders, n (%) / Oropharyngeal pain, Events / Oropharyngeal pain, n (%) / Participants with any TEAE, Events / Participants with any TEAE, n (%) / Pyrexia, Events / Pyrexia, n (%) / Rash, Events / Rash, n (%) / Respiratory, thoracic, and mediastinal disorders, Events / Respiratory, thoracic, and mediastinal disorders, n (%) / Skin and subcutaneous tissue disorders, Events / Skin and subcutaneous tissue disorders, n (%) / Somnolence, Events / Somnolence, n (%) / Vomiting, Events / Vomiting, n (%): n = 8
Protocol: In part 1, Japanese participants were randomized to receive placebo or single dose of ensitrelvir (20, 70, 250, 500, 1,000, and 2,000 mg given to cohorts A, B, C, D, E, and J, respectively), suspended in 0.5% methylcellulose, in the fasted state. Additionally, in cohort C, the effect of food on the pharmacokinetics of ensitrelvir was investigated in a 2-group, 2-period crossover design by administering placebo or ensitrelvir (250 mg) in the fasted or fed (high-fat/high-calorie) state. In part 2, Japanese participants were randomized to receive placebo or multiple doses of ensitrelvir, suspended in 0.5% methylcellulose. The multiple-dose regimens were as follows: once-daily doses of ensitrelvir 375 mg on day 1 and 125 mg on days 2 to 5 (cohort F), or 750 mg on day 1 and 250 mg on days 2 to 6 (cohort G) in the fasted state. White participants were randomized to receive placebo or multiple doses of ensitrelvir. The multiple-dose regimens were as follows: once-daily doses of ensitrelvir 375 mg on day 1 and 125 mg on days 2 to 5 (cohort H). Each cohort included 11 participants. In cohort G, the effect of ensitrelvir on the pharmacokinetics of midazolam (syrup) was evaluated in an open label self-controlled crossover design. Midazolam 2 mg alone was administered 2 days prior to initiating ensitrelvir administration (on day −2) and midazolam was coadministered on day 6 with placebo or ensitrelvir in the fasted state to participants following once-daily doses for 5 days of placebo (days 1 to 5) or ensitrelvir (750 mg on day 1 and 250 mg on days 2–5).
The nature, frequency, and severity of TEAEs were evaluated and recorded.

[2] = Cohort F 375/125 mg, Japanese, listed as ensitrelvir
[3] = Cohort G 750/250 mg + midazolam, Japanese
[4] = Cohort G 750/250 mg + midazolam, Japanese, listed as ensitrelvir
[5] = Cohort H 125 mg, white, listed as ensitrelvir

## Cn1cnc(Cn2c(=O)[nH]/c(=N\c3cc4cn(C)nc4cc3Cl)n(Cc3cc(F)c(F)cc3F)c2=O)n1 [Ensitrelvir, ensitrelvir fumaric acid]
SARS-CoV-2
  antiviral activity in mice: dose-dependent antiviral activity
[1]; Cohort F 375/125 mg, Japanese
  Abdominal pain, Events: 0
  Abdominal pain, n (%): 0
  Blood creatine phosphate increased, Events: 0
  Blood creatine phosphate increased, n (%): 0
  Blood triglyceride increased, Events: 0
  Blood triglyceride increased, n (%): 0
  C-reactive protein increased, Events: 0
  C-reactive protein increased, n (%): 0
  Diarrhea, Events: 5
  Diarrhea, n (%): 4 (50.0)
  Dizziness, Events: 0
  Dizziness, n (%): 0
  Feeling hot, Events: 0
  Feeling hot, n (%): 0
  Gastrointestinal disorders, Events: 5
  Gastrointestinal disorders, n (%): 4 (50.0)
  General disorders and administration site conditions, Events: 0
  General disorders and administration site conditions, n (%): 0
  Headache, Events: 0
  Headache, n (%): 0
  High-density lipoprotein cholesterol decreased, Events: 7
  High-density lipoprotein cholesterol decreased, n (%): 7 (87.5)
  Investigations, Events: 7
  Investigations, n (%): 7 (87.5)
  Nausea, Events: 0
  Nausea, n (%): 0
  Nervous system disorders, Events: 0
  Nervous system disorders, n (%): 0
  Oropharyngeal pain, Events: 0
  Oropharyngeal pain, n (%): 0
  Participants with any TEAE, Events: 12
  Participants with any TEAE, n (%): 7 (87.5)
  Pyrexia, Events: 0
  Pyrexia, n (%): 0
  Rash, Events: 0
  Rash, n (%): 0
  Respiratory, thoracic, and mediastinal disorders, Events: 0
  Respiratory, thoracic, and mediastinal disorders, n (%): 0
  Skin and subcutaneous tissue disorders, Events: 0
  Skin and subcutaneous tissue disorders, n (%): 0
  Somnolence, Events: 0
  Somnolence, n (%): 0
  Vomiting, Events: 0
  Vomiting, n (%): 0
[1]; [2]
  Diarrhea, n (%): 4/8
  High-density lipoprotein cholesterol decreased, n (%): 7/8
[1]; [3]
  Abdominal pain, Events: 0
  Abdominal pain, n (%): 0
  Blood creatine phosphate increased, Events: 1
  Blood creatine phosphate increased, n (%): 1 (12.5)
  Blood triglyceride increased, Events: 2
  Blood triglyceride increased, n (%): 2 (25.0)
  C-reactive protein increased, Events: 1
  C-reactive protein increased, n (%): 1 (12.5)
  Diarrhea, Events: 6
  Diarrhea, n (%): 4 (50.0)
  Dizziness, Events: 1
  Dizziness, n (%): 1 (12.5)
  Feeling hot, Events: 1
  Feeling hot, n (%): 1 (12.5)
  Gastrointestinal disorders, Events: 8
  Gastrointestinal disorders, n (%): 4 (50.0)
  General disorders and administration site conditions, Events: 2
  General disorders and administration site conditions, n (%): 2 (25.0)
  Headache, Events: 6
  Headache, n (%): 4 (50.0)
  High-density lipoprotein cholesterol decreased, Events: 7
  High-density lipoprotein cholesterol decreased, n (%): 7 (87.5)
  Investigations, Events: 11
  Investigations, n (%): 7 (87.5)
  Nausea, Events: 1
  Nausea, n (%): 1 (12.5)
  Nervous system disorders, Events: 11
  Nervous system disorders, n (%): 5 (62.5)
  Oropharyngeal pain, Events: 0
  Oropharyngeal pain, n (%): 0
  Participants with any TEAE, Events: 33
  Participants with any TEAE, n (%): 8 (100)
  Pyrexia, Events: 1
  Pyrexia, n (%): 1 (12.5)
  Rash, Events: 1
  Rash, n (%): 1 (12.5)
  Respiratory, thoracic, and mediastinal disorders, Events: 0
  Respiratory, thoracic, and mediastinal disorders, n (%): 0
  Skin and subcutaneous tissue disorders, Events: 1
  Skin and subcutaneous tissue disorders, n (%): 1 (12.5)
  Somnolence, Events: 4
  Somnolence, n (%): 3 (37.5)
  Vomiting, Events: 1
  Vomiting, n (%): 1 (12.5)
[1]; [4]
  Diarrhea, n (%): 4/8
  Headache, n (%): 4/8
  High-density lipoprotein cholesterol decreased, n (%): 7/8
  Somnolence, n (%): 3/8
[1]; Cohort H 125 mg, white
  Abdominal pain, Events: 1
  Abdominal pain, n (%): 1 (12.5)
  Blood creatine phosphate increased, Events: 0
  Blood creatine phosphate increased, n (%): 0
  Blood triglyceride increased, Events: 0
  Blood triglyceride increased, n (%): 0
  C-reactive protein increased, Events: 0
  C-reactive protein increased, n (%): 0
  Diarrhea, Events: 6
  Dizziness, Events: 0
  Dizziness, n (%): 0
  Feeling hot, Events: 0
  Feeling hot, n (%): 0
  Gastrointestinal disorders, Events: 7
  Gastrointestinal disorders, n (%): 4 (50.0)
  General disorders and administration site conditions, Events: 0
  General disorders and administration site conditions, n (%): 0
  Headache, Events: 4
  Headache, n (%): 2 (25.0)
  High-density lipoprotein cholesterol decreased, Events: 7
  High-density lipoprotein cholesterol decreased, n (%): 7 (87.5)
  Investigations, Events: 7
  Investigations, n (%): 7 (87.5)
  Nausea, Events: 0
  Nausea, n (%): 0
  Nervous system disorders, Events: 4
  Nervous system disorders, n (%): 2 (25.0)
  Oropharyngeal pain, Events: 1
  Oropharyngeal pain, n (%): 1 (12.5)
  Participants with any TEAE, Events: 19
  Participants with any TEAE, n (%): 8 (100)
  Pyrexia, Events: 0
  Pyrexia, n (%): 0
  Rash, Events: 0
  Rash, n (%): 0
  Respiratory, thoracic, and mediastinal disorders, Events: 1
  Respiratory, thoracic, and mediastinal disorders, n (%): 1 (12.5)
  Skin and subcutaneous tissue disorders, Events: 0
  Skin and subcutaneous tissue disorders, n (%): 0
  Somnolence, Events: 0
  Somnolence, n (%): 0
  Vomiting, Events: 0
  Vomiting, n (%): 0
[1]; [5]
  Diarrhea, n (%): 4/8
  Headache, n (%): 2/8
  High-density lipoprotein cholesterol decreased, n (%): 7/8
[1]; single- and multiple-dose administration
  course of the decrease in HDL-C levels: transient and generally reverted to the baseline values
